In data set [1] the test system is Gram-negative and Gram-positive bacterial strains. As for the experimental part:
The peptides were assessed for their antibacterial activity by determining the minimum inhibitory concentration (MIC) using the two-fold serial dilution method following the National Committee of Clinical Laboratory Standards, as previously described. Gram-negative (Acinetobacter baumannii (DSM 30007), Escherichia coli (ATCC 8739), Enterobacter cloacae (DSM 30054), Helicobacter pylori (ATCC 43504), Klebsiella pneumoniae (DSM 26371), Pseudomonas aeruginosa (ATCC 9027)) and Gram-positive bacteria (Bacillus subtilis (ATCC 6633), Enterococcus faecalis (DSM 2570), Enterococcus faecium (DSM 20477), Staphylococcus aureus (ATCC 6538)) were used for the antibacterial activity assays. In brief, 3 mL of Mueller–Hinton (MH) broth was inoculated with single clusters of the various bacterial strains and incubated overnight at 37 °C with agitation at 200 rpm. The next day, the bacterial solution was diluted with sterile MH by 1/100 and further incubated at 37 °C and 200 rpm until the bacteria reached the log phase growth (OD600nm around 0.6). The bacterial suspension was then adjusted to a density of approximately 10^5 bacteria/mL, and 100 μL was added per well of 96-well microplates (Greiner BioOne, Les Ulis, France), followed by exposure to increasing concentrations of peptides (from 0 to 100 µM, 1:2 dilution). Plates were then incubated at 37 °C for 18-24 h under either aerobic (for A. baumannii, E. cloacae, E. coli, P. aeruginosa, B. subtilis, and S. aureus) or micro-aerobic conditions generated using GasPak units (for E. faecalis, E. faecium and, H. pylori). […] The optical density (OD) at 600nm was measured using a microplate reader (Biotek, Synergy Mx, Les Ulis, France) after the final incubation. All experiments were performed in triplicate (n = 3).

The test system of a further data set is Breast Cancer (MCF-7). In kind it is cell-based, human. The conditions noted are these: 48 h. The method, then: (§1) The antiproliferative activity of the peptides was evaluated, as previously described using human cancer cell lines (A549 (lung), A2780 (ovary), HepG-2 (liver), MCF-7 (breast), MiaPaCa-2 (pancreas), MNT-1 (skin), and PC-3 (prostate)) and normal human lung fibroblasts (IMR-90) or epithelial cells (BEAS-2B). The cells were cultured in DMEM supplemented with 10% FBS, 1% L-glutamine, and 1% antibiotics at 37 °C in a 5% CO2 incubator. For the antiproliferative assay, cells were seeded in 96-well plates at approximately 3000 cells/well. Twenty-four hours later, cells were treated with increasing concentrations of peptides (1:2 serial dilution from 100 µM to 0 µM) for 48 h. After treatment, the number of viable cells was determined using a resazurin-based assay, and the fluorescence intensity was measured with a microplate reader (Ex 530 nm/Em 590 nm). The IC50 values of the peptides (i.e., the concentrations causing 50% inhibition of cell proliferation) were determined using GraphPad® Prism 7 software. The experiments were performed in triplicate (n = 3). The cytotoxicity of the peptides was also evaluated using confluent/no-dividing cells, as previously described. Briefly, human cells were seeded onto 96-well plates at 20,000 cells/well. When they reached 80–90% confluence (after 24–48 h), cells were treated with escalating concentrations of peptides. After 48h incubation, cell viability was measured using a resazurin assay and CC50 (i.e., the concentrations causing 50% inhibition of cell viability) and determined using GraphPad® Prism 7 software. The experiments were performed in triplicate (n = 3).

In a further data set the test system is Liver Cancer (HepG-2). In kind it is cell-based, human. The conditions noted are these: 48 h. The method, then:
as §1

The subject of the next data set is Lung Cancer (A549). In kind it is cell-based, human. The conditions noted are these: 48 h. The method, then:
as §1

The test system of data set [2] is Normal Lung Epithelium (BEAS-2B). Format: cell-based, human. The conditions noted are these: 48 h. As for the experimental part: as §1
Data set [3] relates to Normal Lung Fibroblast (IMR-90). Format: cell-based, human. The following applies: 48 h. The method, then:
as §1

Another data set relates to Ovarian Cancer (A2780). In kind it is cell-based, human. The conditions noted are these: 48 h. The method, then:
as §1

Data set [4] has as its system Pancreatic Cancer (MiaPaCa-2). Format: cell-based, human. The conditions noted are these: 48 h. The method, then: as §1
Another data set deals with Prostate Cancer (PC-3). Format: cell-based, human. The conditions noted are these: 48 h. The method, then: as §1
The subject of a further data set is Skin Cancer (MNT-1). Format: cell-based, human. The following applies: 48 h. The method, then:
as §1

For data set [5], the system named is human cancer and normal/non-cancerous cells. In kind it is cell-based. The following applies: tested human cells, up to 100 µM. As for the experimental part: as §1
A short description of data set [6]: Circular dichroism, secondary structure (Bestsel). The conditions noted are these: CD in 20 mM SDS. Format: physicochemical. The method, then:
Circular dichroism of temporin SHa, [G10a]-SHa and newly synthesised second-generation analogs of [G10a]-SHa in 20 mM SDS are shown in Figure 2. In lipidic environments mimicked by SDS, peptides adopt an alpha helical structure due to their amphipathic nature. This structural feature is important for their antimicrobial activity, allowing for their insertion into bacterial membranes. The hydrophobic region of the peptide interacts with the hydrophobic portion of the lipid while the hydrophilic region remains exposed to the aqueous environment. The percentage of alpha helix, as well as the percentage of other secondary structures, was determined from CD data using Bestsel software (https://bestsel.elte.hu/index.php, (accessed on 22 June 2024)) (Table 3). Temporin-SHa (1) adopted a 49.5% α-helical structure, while its first-generation analog [G10a]-SHa (2) acquired a 82.4% alpha helical structure. The 84.6%, 88.7%, 4.7%, and 53.8% alpha helical structures were acquired for second-generation analogs 3, 4, 5, and 6, respectively.
The far-ultraviolet CD spectra were obtained using a JASCO J-810 spectropolarimeter (Jasco, Tokyo, Japan). In addition to this, the quartz cuvette of 10 mm path length was used. The temperature was maintained at 22 °C, and the output of the instrument was calibrated using D-(+)-10-camphorsulfonic acid. The peptides, which were present at a concentration of 1.0 mg/mL, were dissolved completely in 20 mM SDS at a concentration of 15 µM [21]. The instrument was set to record wavelengths ranging from 190 to 260 nm with a bandwidth of 2 nm. Ten consecutive scans (accumulations) were recorded for each spectrum at a rate of 50 nm/min, and the baseline was acquired under the same conditions.
(Circular dichroism is widely used to follow secondary structure.)

Where a SMILES comes first, the peptide text is derived from it. [ ]: non-standard residue; d: D form. d2Nal = N[C@H](Cc1ccc2ccccc2c1)C(=O)O

On to `CC[C@H](C)[C@H](NC(=O)CNC(=O)[C@H](CO)NC(=O)[C@H](CC(C)C)NC(=O)[C@@H](N)Cc1ccccc1)C(=O)N[C@H](C(=O)NCC(=O)N[C@@H](CCSC)C(=O)N[C@@H](CC(C)C)C(=O)N[C@H](Cc1ccc2ccccc2c1)C(=O)N[C@@H](CCCCN)C(=O)N[C@@H](CC(C)C)C(=O)N[C@@H](Cc1ccccc1)C(N)=O)C(C)C` [[G10n]-SHa (5), H-Phe^1-Leu^2-Ser^3-Gly^4-IIe^5-Val^6-Gly^7-Met^8-Leu^9-D-NAL^10-Lys^11-Leu^12-Phe^13-NH2] (H-FLSGIVGML[d2Nal]KLF-NH2), for which the “MIC values, range over strains” value in data set [1] is 50 to 100 µM. Besides, the IC50 (with Breast Cancer (MCF-7); in the data set with Liver Cancer (HepG-2); in the data set on Lung Cancer (A549); in [2]; in data set [3]; in the data set with Ovarian Cancer (A2780)) was more than 100 µM throughout. Further, the IC50 (in data set [4]; in the data set with Prostate Cancer (PC-3); with Skin Cancer (MNT-1)) was more than 100 µM each time. The “activity against the tested human cells” value in [5] was “inactive”. This compound returned an Antiparallel in [6] of 34.10%. Further, the “Helix (alpha helical structure)” value in data set [6] came to 4.70%; in data set [6] (listed as 5), 4.7%. In addition, the Others in data set [6] is given as 47.20%. The Parallel in data set [6] is given as 1.10%. The same compound displayed a Turn in [6] of 12.90%.

(Values after paper PMC11350846, “Synthesis of Second-Generation Analogs of Temporin-SHa Peptide Having Broad-Spectrum Antibacterial and Anticancer Effects” (Antibiotics, 2024).)
